Laboratory results as given in publication PMC8208785, “Therapeutic efficacy of novel memantine nitrate MN‐08 in animal models of Alzheimer’s disease” (Aging Cell, 2021).
Entries after “also recorded” stand apart in the source; their conditions may differ.

Assays:
[1] = system: cerebellar granule neurons (CGNs); assay: MTT cell viability, glutamate-induced excitotoxicity in CGNs; type: cell-based, rat; conditions: LY294002 incubated with MN‐08
Procedure: Excessive glutamate‐induced excitotoxicity might cause dysfunctions of cellular pathways, subsequently resulting in synaptic dysfunctions and neuronal loss. To evaluate the neuroprotective effects of MN‐08 against excitotoxicity, cerebellar granule neurons (CGNs) were treated with MN‐08 at the concentrations from 1 to 50 µM or memantine from 1 to 10 μM for 2 h, and then exposed to 100 μM glutamate for 24 h. […] Similarly, in APP/PS1 mice, MN‐08 prevented neuronal loss in the hippocampus by upregulating the expression ratio of Bcl‐2/Bax and downregulating the expression ratio of cleaved Caspase‐3 to Caspase‐3 (Figure S6).
CGNs were prepared from the 8-day-old Sprague–Dawley rats as described in our previous publication (Li et al., 2005). Briefly, animals were anesthetized and sacrificed, and their cerebella were collected. […]
Neurotoxicity was assessed using the tetrazolium salt 3-(4,5-dimethylthiazol-2-yl)-2,5- diphenyltetrazolium bromide dye (MTT) assay as previous publication (Luo et al., 2010). […] Cell viability was evaluated by observing colorimetric changes using a CLARIOstar plus Microplate Reader (BMG Labtech, Ortenberg, Germany) at a test wavelength of 570 nm with 655 nm as a reference wavelength. Data were expressed as a percentage of control cultures.

[2] = system: ERK and PI3K/Akt/GSK3β pathway; assay: Western blotting of p-ERK, p-Akt, p-GSK3β and Bcl-2 in glutamate-challenged CGNs; type: cell-based, rat; conditions: LY294002 incubated with MN‐08
From the text: To further characterize the neuroprotection of MN‐08, the level of the key signaling molecules, such as ERK, Akt, and GSK3β, was examined by Western blotting assay. […] Moreover, pre‐treatment with MN‐08 reversed expression of both p‐Akt and p‐GSK3β with the challenge of glutamate. Akt is an important downstream member of PI3K. To further confirm whether the PI3K/Akt pathway was associated with the neuroprotection of MN‐08 against glutamate‐induced excitotoxicity, specific PI3K inhibitor LY294002 was applied and incubated with MN‐08. […] Taken together, MN‐08 might protect against glutamate‐induce cytotoxicity by reversing the dysregulations of ERK pathway and PI3K/Akt/GSK3β pathway.
Western blotting analysis was performed as previously described with minor modifications (Huang, Li, & Nan, 2017). Proteins were extracted from hippocampal tissue and their concentrations determined by the BCA protein assay kit (Fdbio science, Hangzhou, China). The protein (20 μg) was separated on a 12% SDS-PAGE gel and then transferred to PVDF membranes. The membranes were blocked using 5 % nonfat dry milk for 2 h. The protein blots were incubated with the corresponding primary antibodies against p-Akt (#4060, 1:1000, Cell Signaling Technology), Akt (#4685, 1:1000, Cell Signaling Technology), BACE1 (#5606, 1:1000, Cell Signaling Technology), PS1 (#5643, 1:1000, Cell Signaling Technology), p-GSK3β (#5558, 1:1000, Cell Signaling Technology), GSK3β (#12456, 1:1000, Cell Signaling Technology), Bcl-2 (#3498, 1:1000, Cell Signaling Technology), Bax (#5023, 1:1000, Cell Signaling Technology), Cleaved caspase-3 (#9661, 1:1000, Cell Signaling Technology), Caspase-3 (#9662, 1:1000, Cell Signaling Technology), ADAM10 (#14194, 1:1000, Cell Signaling Technology), APP (#ab241592, 1:1000, Abcam), sAPPα (#ab126723, 1:1000, Abcam), NEP (#ab216341, 1:1000, Abcam), Synapsin I (#ab64581, 1:1000, Abcam), Synapsin II (#ab76494, 1:1000, Abcam), NR2A (#ab124913, 1:2000, Abcam), PSD95 (#ab18258, 1:1000, Abcam), Synaptophysin (#ab32127, 1:1000, Abcam), IDE (#ab133561, 1:1000, Abcam), Drebin (#ab178408, 1:1000, Abcam) and Tau-5 (#ab80579, 1:2000, Abcam) overnight at 4°C. After washing 3 times, the membranes were incubated with the respective HRP-conjugated secondary antibody. ECL Western blotting Detection Reagents (Fdbio science, Hangzhou, China) were used to perform Chemiluminescence detection. Quantitative analysis of protein bands was conducted by the Carestream system (Carestream Health, Inc, USA).
CGNs were prepared from the 8-day-old Sprague–Dawley rats as described in our previous publication (Li et al., 2005). Briefly, animals were anesthetized and sacrificed, and their cerebella were collected. Then, the freshly collected cerebella were rinsed in cold Kreb’s buffer-BSA and digested with 0.025 % trypsin incubated in a 37°C for 15 min. The reaction was stopped, and the single cell suspension was obtained through pipetting up and down the sedimentary tissue. CGNs were seeded in basal modified Eagle’s medium (ThermoFisher Scientific, Waltham, MA, USA) supplemented with 10 % fetal bovine serum, 25 mM KCl, 2 mM glutamine and 100 units/mL penicillin/streptomycin at a density of 1.5×10^6 cells/mL. Cytosine arabinoside (10 μM) was added to inhibit the growth of non-neuronal cells at 24 h after seeding. All experiments were carried out after 8 days in vitro. […]

[3] = system: 3×Tg‐AD mice; assay: Golgi staining of dendritic spines and Western blotting of synaptic markers in 3×Tg-AD mice; type: in vivo; conditions: donepezil 1.3 mg/kg
Procedure: Triple transgenic 3×Tg‐AD mice were acquired from Jackson Laboratory and fostered in the Shenzhen Center for Disease Control and Prevention (Shenzhen, China). Eight‐month‐old 3×Tg‐AD mice were categorized into six groups: (1) 3×Tg‐AD +Vehicle group; (2) 3×Tg‐AD +MN‐08 (3 mg/kg) group; (3) 3×Tg‐AD +MN‐08 (6 mg/kg) group; (4) 3×Tg‐AD +MN‐08 (12 mg/kg) group; (5) 3×Tg‐AD +Memantine (Mem, 5 mg/kg) group; (6) 3×Tg‐AD +Donepezil (Done, 1.3 mg/kg, once daily) group; (7) Eight‐month‐old B6129SF2/J mice as a control group. MN‐08 and memantine were given twice daily (Done, once daily) by gastric gavage for 4 months from 8 months of age.
Golgi staining was used to determine hippocampal dendritic spine density by a Rapid Golgi Stain Kit (FD Neurotechnologies, Columbia, MD, USA) according to the manufacturer’s instructions. The brain was removed after the behavioral tests and incubated with impregnation solution in the dark at room temperature for 1 week. Impregnation solution was replaced with solution A and stored in the dark for 3 days. Brain sections (100 μm thickness) were placed on gelatin-coated microscope slides and then immersed in ddH2O. Solution B, Solution C, 80 % ethanol and xylene were used for 10 min, sequentially. The dendritic spines of hippocampal neurons were analyzed and counted in a blinded manner from six sections per animal by light microscopy (Olympus, Tokyo, Japan).
Western blotting analysis was performed as previously described with minor modifications (Huang, Li, & Nan, 2017). Proteins were extracted from hippocampal tissue and their concentrations determined by the BCA protein assay kit (Fdbio science, Hangzhou, China). The protein (20 μg) was separated on a 12% SDS-PAGE gel and then transferred to PVDF membranes. The membranes were blocked using 5 % nonfat dry milk for 2 h. […] Quantitative analysis of protein bands was conducted by the Carestream system (Carestream Health, Inc, USA).

Structure (SMILES) | effect of LY294002 on the neuroprotective effects of MN‐08 against glutamate (MTT) [1] | effect of LY294002 on upregulation of p‐Akt and p‐GSK3β by MN‐08 [2] | reduction of dendritic spines (hippocampus CA1, Golgi staining) [3]
O=c1cc(N2CCOCC2)oc2c(-c3ccccc3)cccc12 [LY294002] | canceled; also recorded: partially abolished | significantly abolished | 
COc1cc2c(cc1OC)C(=O)C(CC1CCN(Cc3ccccc3)CC1)C2 (stereo not drawn) [donepezil, reference compound] |  |  | markedly reversed
